In PMC3544981 (Pharmacology, biochemistry, and behavior, 2012):
Where “and” joins values, the source holds several entries; their conditions need not be identical. Equal entries are not always repeated. Where two headings read alike, the source gives them in different places.

What was measured:
[1] = biological target: T1, α4β2*-nAChR binding sites (Mus musculus, UniProt O70174+Q9ERK7); experiment: [125I]-Epibatidine binding to membrane fragments, cortex; details: read-out: Kd for [125I]-epibatidine, WT mice
[2] = biological target: T2, α4β2*-nAChR binding sites (Mus musculus, UniProt O70174+Q9ERK7, V287L); experiment: as above; details: read-out: Kd for [125I]-epibatidine, MT mice
[3] = biological target: α4β2*-nAChR binding sites; experiment: as above; design: species or system mouse; details: read-out: Kd for [125I]-epibatidine, HT mice
[4] = biological target: T1, α4β2*-nAChR binding sites; experiment: [125I]-Epibatidine binding to membrane fragments, thalamus; details: read-out: Kd for [125I]-epibatidine, WT mice
[5] = biological target: T2, α4β2*-nAChR binding sites; experiment: as above; details: read-out: Kd for [125I]-epibatidine, MT mice
[6] = biological target: α4β2*-nAChR binding sites; experiment: as above; design: species or system mouse; details: read-out: Kd for [125I]-epibatidine, HT mice
[7] = test system: β2VL mice; details: mouse, in vivo, ip, 5 mg/kg
[8] = test system: β2VL mice; details: male, mouse, in vivo, ip, 2 mg/kg
[9] = biological target: α4β2*-nAChR (Mus musculus, UniProt O70174+Q9ERK7); type: biochemical
[10] = biological target: T3, α4β2*-nAChRs (Mus musculus, UniProt O70174+Q9ERK7); type: biochemical
[11] = biological target: T4, α4β2*-nAChRs (Mus musculus, UniProt O70174+Q9ERK7, V287L); type: biochemical
[12] = biological target: α6β2*-nAChR (Mus musculus, UniProt Q9ERK7+Q9R0W9)
[13] = biological target: α6β2*-nAChR (Mus musculus, UniProt Q9ERK7+Q9R0W9, V287L); details: striatum, MT mice
[14] = biological target: T3, α4β2*-nAChRs
[15] = biological target: T4, α4β2*-nAChRs
[16] = test system: α4S248F mutation; details: 2007, cited from earlier work
[17] = β2VL knock-in, homozygous mutant (MT)

Sequence of α4β2*-nAChR (O70174 31-629): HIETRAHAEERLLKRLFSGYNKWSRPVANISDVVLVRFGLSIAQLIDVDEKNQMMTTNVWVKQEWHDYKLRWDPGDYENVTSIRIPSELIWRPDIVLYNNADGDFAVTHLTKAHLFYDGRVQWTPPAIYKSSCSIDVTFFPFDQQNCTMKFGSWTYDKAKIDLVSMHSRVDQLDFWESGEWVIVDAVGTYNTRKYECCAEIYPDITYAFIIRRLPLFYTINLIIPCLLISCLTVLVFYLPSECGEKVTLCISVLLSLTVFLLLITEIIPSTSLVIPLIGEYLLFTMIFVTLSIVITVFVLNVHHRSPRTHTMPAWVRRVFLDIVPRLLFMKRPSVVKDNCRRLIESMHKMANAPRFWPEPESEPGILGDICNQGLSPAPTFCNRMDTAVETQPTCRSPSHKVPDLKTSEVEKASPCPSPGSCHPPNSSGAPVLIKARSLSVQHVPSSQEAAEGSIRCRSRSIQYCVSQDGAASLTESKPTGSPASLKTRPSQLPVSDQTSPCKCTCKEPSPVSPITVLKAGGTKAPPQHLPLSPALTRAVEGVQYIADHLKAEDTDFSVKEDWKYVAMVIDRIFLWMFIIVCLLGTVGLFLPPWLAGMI
Sequence of α4β2*-nAChR (Q9ERK7 26-501): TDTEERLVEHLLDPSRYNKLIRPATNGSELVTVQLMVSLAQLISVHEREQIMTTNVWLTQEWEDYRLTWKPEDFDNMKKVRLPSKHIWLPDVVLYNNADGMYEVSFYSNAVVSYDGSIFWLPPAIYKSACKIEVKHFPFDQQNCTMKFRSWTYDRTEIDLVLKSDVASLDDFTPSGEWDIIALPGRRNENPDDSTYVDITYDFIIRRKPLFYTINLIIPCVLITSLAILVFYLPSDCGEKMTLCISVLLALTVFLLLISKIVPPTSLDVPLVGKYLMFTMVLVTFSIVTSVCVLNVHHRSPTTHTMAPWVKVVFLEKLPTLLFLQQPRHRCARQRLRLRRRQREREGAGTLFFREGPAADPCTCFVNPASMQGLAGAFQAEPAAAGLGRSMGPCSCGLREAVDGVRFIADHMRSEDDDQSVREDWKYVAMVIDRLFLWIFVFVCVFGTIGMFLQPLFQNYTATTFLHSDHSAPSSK
T2 sequence (O70174 31-629): as the sequence (O70174 31-629) above
T2 sequence (Q9ERK7 26-501 V287L): as the sequence (Q9ERK7 26-501) above, with V262L counted along it
T4 sequence (O70174 31-629): as the sequence (O70174 31-629) above
T4 sequence (Q9ERK7 26-501 V287L): as the sequence (Q9ERK7 26-501) above, with V262L counted along it
T1 sequence (Q9ERK7 26-501): as the sequence (Q9ERK7 26-501) above
T1 sequence (O70174 31-629): as the sequence (O70174 31-629) above
Sequence of α6β2*-nAChR (Mus musculus, UniProt Q9ERK7+Q9R0W9, V287L) (Q9R0W9 31-494): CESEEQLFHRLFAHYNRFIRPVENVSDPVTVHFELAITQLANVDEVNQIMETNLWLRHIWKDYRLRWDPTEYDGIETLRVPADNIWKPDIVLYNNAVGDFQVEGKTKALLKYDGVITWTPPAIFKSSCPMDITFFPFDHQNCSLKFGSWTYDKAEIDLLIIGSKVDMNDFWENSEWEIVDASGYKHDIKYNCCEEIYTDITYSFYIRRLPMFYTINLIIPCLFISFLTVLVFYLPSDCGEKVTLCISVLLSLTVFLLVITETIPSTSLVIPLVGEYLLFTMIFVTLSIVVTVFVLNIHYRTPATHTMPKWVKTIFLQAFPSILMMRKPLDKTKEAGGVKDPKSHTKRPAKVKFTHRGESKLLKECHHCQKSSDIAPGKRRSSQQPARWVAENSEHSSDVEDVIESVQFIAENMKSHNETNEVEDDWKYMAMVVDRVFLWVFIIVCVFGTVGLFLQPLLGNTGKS
Sequence of α6β2*-nAChR (Mus musculus, UniProt Q9ERK7+Q9R0W9, V287L) (Q9ERK7 26-501 V287L): as the sequence (Q9ERK7 26-501) above, with V262L counted along it

In the case of `Ic1ccc(C2CC3CCC2N3)cn1` (stereo not shown) [[^125I]-epibatidine], the Kd [1] is reported as 0.15 ± 0.03 nM, the Kd [2] is reported as 0.13 ± 0.02 nM and the Kd [3] is reported as 0.12 ± 0.02 nM. It also gave a Kd [4] of 0.15 ± 0.06 nM, a Kd [5] of 0.11 ± 0.03 nM and a Kd [6] of 0.08 ± 0.01 nM.
In the case of `CN1CCC[C@H]1c1cccnc1` [nicotine], the “interval from DAC to spike-wave seizure with tonic-clonic convulsions” value [7] is reported as 2 to 3 min, the “time to tonic-clonic convulsion with EEG spike-wave discharges post-injection” value [7] is reported as 3~4 min and the “mice displaying diagonal retrograde tail” value [8] is reported as 2/19. For the same compound, the “mice displaying tonic forelimb digit splaying” value [8] was 1/19, the “mice displaying tonic forelimb extension” value [8] was 1/19 and the “mice exhibiting forelimb clonus” value [8] was 0/19. For the same compound, the “post-injection latency for onset of diagonal retrograde tail” value [8] was 31 ± 8 s, the “mice displaying diagonal retrograde tail” value [8, 17] was 19/19 and the “mice displaying tonic forelimb digit splaying” value [8, 17] was 16/19. For the same compound, the “mice displaying tonic forelimb extension” value [8, 17] was 18/19, the “mice exhibiting forelimb clonus” value [8, 17] was 12/19 and the “post-injection latency for onset of forelimb clonus” value [8, 17] was 59 ± 7 s. The “post-injection latency for onset of tonic digit splaying” value [8, 17] was 59 ± 6 s and the “post-injection latency for onset of tonic forelimb extension” value [8, 17] was 57 ± 5 s.
For `CC(=O)OCC[N+](C)(C)C` [ACh, acetylcholine iodide], the “control ACh-stimulated 86Rb+ efflux” value [9] was 5.64±1.43 and 3.35±0.47, the “maximum ACh-stimulated [3H]-GABA release” value [10] was 3.31±0.24 and 3.69±0.19 and the “reduction in maximal ACh-stimulated [3H]-GABA release” value [10] was 20%. For the same compound, the “maximum ACh-stimulated [3H]-GABA release” value [11] was 2.64±0.13, the “decrease in the α-CtxMII sensitive [3H]-dopamine release” value [12] was 23% and the “α-CtxMII-sensitive maximal [3H]-dopamine release” value (shortened to “α-CtxMII-sensitive maximal”) [12] was 3.31±0.30. For the same compound, the “α-CtxMII-sensitive maximal” value ([12]; striatum, WT mice) was 4.82±0.30, the “α-CtxMII-sensitive maximal” value [13] was 3.73±0.29 and the “decrease in EC50, ACh-stimulated [3H]-GABA release” value [14] was “approximately 10 fold”. The “maximum ACh-stimulated [3H]-GABA release” value [14] was 1.96±0.17 and 2.25±0.16, the “reduction in maximal ACh-stimulated [3H]-GABA release” value [14] was 0% and the “maximum ACh-stimulated [3H]-GABA release” value [15] was 2.11±0.14. The “decrease in maximal ACh-stimulated [3H]-GABA release” value ([16]; α4S248F HT mice ref Teper et al.) was 60% and the “decrease in maximal ACh-stimulated [3H]-GABA release” value ([16]; α4S248F MT mice ref Teper et al.) was 80%.
